Experimental data as given in US20230339978A1, “COMPOUNDS FOR PREVENTION OR TREATMENT OF NEURODEGENERATIVE DISORDERS” (1ST Biotherapeutics, Inc., priority 2020, published 2023).
Read-outs that look alike come from different tables or passages of the source.

Experiments:
[1] = biological target: GST-tagged recombinant human RIPK2 (Homo sapiens (Human), UniProt O43353); experiment: RIP2 Kinase Assay (ADP-Glo); assay type: biochemical; settings: 25 µM ATP, MBP substrate, 30° C. 60 minutes
Experimental: GST-tagged recombinant human RIPK2(25 ng) is incubated with 5 µL of compounds (0.5% DMSO), 5 µL of MBP (0.5 µg/µl) and 5 µL of ATP (25 µM) in buffer (40 mM Tris, 7.5; 20 mM MgCl2; 0.1 mg/ml BSA; 50 µM DTT). The assay was started by incubating the reaction mixture in a 96-well plate at 30° C. for 60 minutes. After the incubation, 25 µL ADP-Glo reagent was added, and the reaction was incubated at 30° C. for 40 minutes to stop the reaction and degrade residual ATP. The ADP product was then converted to ATP by adding 50 µL per well of detection reagent. Luminescence was detected after 30 minutes room temperature incubation with the Molecular device I3X plate reader. The IC50 values were calculated from a series of percent inhibition values determined at a range of inhibitor concentration using software routines as implemented in the GraphPad Prism 7 software or SigmaPlot 13.0.

[2] = biological target: T1, His-tagged recombinant human ABL1 (Homo sapiens (Human), UniProt P00519); experiment: biochemical
T1 sequence (P00519 whole entry): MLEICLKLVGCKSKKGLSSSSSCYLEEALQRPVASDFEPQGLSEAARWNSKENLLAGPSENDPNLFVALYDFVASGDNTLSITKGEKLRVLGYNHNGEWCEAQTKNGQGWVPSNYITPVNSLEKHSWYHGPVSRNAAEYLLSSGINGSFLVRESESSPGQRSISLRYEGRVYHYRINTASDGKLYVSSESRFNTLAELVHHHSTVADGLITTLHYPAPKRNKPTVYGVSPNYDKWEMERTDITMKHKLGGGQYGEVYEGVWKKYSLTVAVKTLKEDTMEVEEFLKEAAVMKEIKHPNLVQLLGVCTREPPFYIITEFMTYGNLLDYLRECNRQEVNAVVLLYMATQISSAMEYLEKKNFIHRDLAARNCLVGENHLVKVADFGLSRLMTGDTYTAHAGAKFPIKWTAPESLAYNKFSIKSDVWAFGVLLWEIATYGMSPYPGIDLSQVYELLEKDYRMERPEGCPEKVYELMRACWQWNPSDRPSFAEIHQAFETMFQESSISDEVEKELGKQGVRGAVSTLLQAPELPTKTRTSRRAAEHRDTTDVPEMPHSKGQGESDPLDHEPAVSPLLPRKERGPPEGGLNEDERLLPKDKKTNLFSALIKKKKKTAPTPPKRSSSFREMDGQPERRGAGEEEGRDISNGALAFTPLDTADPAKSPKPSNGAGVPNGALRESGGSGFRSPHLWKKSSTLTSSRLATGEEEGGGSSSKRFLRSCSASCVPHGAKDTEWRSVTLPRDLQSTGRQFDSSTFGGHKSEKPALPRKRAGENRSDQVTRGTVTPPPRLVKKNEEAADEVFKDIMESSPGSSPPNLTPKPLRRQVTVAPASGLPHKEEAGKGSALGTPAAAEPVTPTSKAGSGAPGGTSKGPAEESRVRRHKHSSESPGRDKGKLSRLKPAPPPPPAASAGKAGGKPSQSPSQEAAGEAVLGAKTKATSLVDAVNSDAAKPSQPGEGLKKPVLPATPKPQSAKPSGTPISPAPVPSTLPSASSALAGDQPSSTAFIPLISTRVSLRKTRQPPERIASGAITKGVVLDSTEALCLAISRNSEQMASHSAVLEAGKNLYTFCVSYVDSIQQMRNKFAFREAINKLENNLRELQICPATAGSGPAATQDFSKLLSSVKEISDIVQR
Experimental: (§3) ADP-Glo assay kit was purchased from Promega. Magnesium chloride (MgCl2), bovine serum albumin (BSA), ethylene glycol-bis(β-aminoethyl ether)-N,N,N′,N′-tetraacetic acid (EGTA), tween-20, 1,4-dithiothreitol (DTT) and dimethyl sulfoxide (DMSO) were purchased from Sigma-Aldrich. HEPES buffer was purchased from Gibco. ABL1 kinase and Abltide were purchased from Signalchem.
(§4) c-Abl kinase activity was measured by Promega’s ADP-Glo ® Assay. In this assay, His-tagged recombinant human ABL1 (0.25 ng/µl) is incubated with 5 µL of compounds (0.5% DMSO), 5 µL of Abltide (0.01 µg/µl) and 5 µL of ATP (25 µM) in buffer (50 mM HEPES,7.5; 10 mM MgCl2; 1 mM EGTA; 0.05% BSA; 0.01% Tween-20; 2 mM DTT.). The assay was started by incubating the reaction mixture in a 96-well plate at 30° C. for 30-min. After the incubation, 25 µL ADP-Glo reagent was added and the reaction was incubated at room temperature for 40-min to stop the reaction and degrade residual ATP. The ADP product was then converted to ATP by adding 50 µL per well of detection reagent. Luminescence was detected after 30-min room temperature incubation with the Molecular device I3X plate reader. The IC50 values were calculated from a series of percent inhibition values determined at a range of inhibitor concentration using software routines as implemented in the GraphPad Prism 7 software and Sigma Plot 13.0.

[3] = test system: IL-6 secretion in BV-2 cell; experiment: IL-6 Secretion in BV-2 Cell (L18-MDP stimulated, ELISA); assay type: cell-based; settings: BV-2 mouse microglia cells, 10 µg/ml L18-MDP, 24 hr
Experimental: IL-6 Secretion in BV-2 Cell
BV-2 mouse microglia cells were kindly provided from Dr. Bae in Korea Institute of Science and Technology (KIST). BV-2 cells were thawed and suspended in Dulbecco’s modified eagle medium (DMEM) supplemented with 10% fetal bovine serum (FBS) and 1% Penicillin/Streptomycin. Cells were seeded into 96 well plates at 2X10^4 cells/well and allowed to attach for 24 hr. On the day of the experiment, various concentration of compounds were treated, and cells were stimulated with 10 µg/ml L18-MDP. After 24 hr incubation, supernatant was collected for cytokine assay.
Absorbance at 450 nm was measured using SpectraMax I3X microplate reader (Molecular Device). Values of media-only wells were subtracted and % inhibition for each compound concentration relative to the DMSO/L18-MDP-treated controls (100%) was calculated.

[4] = biological target: T1, His-tagged recombinant human ABL1; settings: read-out: c-Abl IC50; 25 µM ATP, Abltide substrate, 30° C. 30-min
Experimental: as §3, §4

LRRK2 (WT) = LRRK2 (WT) (Homo sapiens (Human), UniProt Q5S007); experiment: LRRK2 kinase assay (Adapta); assay type: biochemical; settings: 70 µM ATP, LRRKtide substrate
Sequence of LRRK2 (WT) (Q5S007 whole entry, species assumed): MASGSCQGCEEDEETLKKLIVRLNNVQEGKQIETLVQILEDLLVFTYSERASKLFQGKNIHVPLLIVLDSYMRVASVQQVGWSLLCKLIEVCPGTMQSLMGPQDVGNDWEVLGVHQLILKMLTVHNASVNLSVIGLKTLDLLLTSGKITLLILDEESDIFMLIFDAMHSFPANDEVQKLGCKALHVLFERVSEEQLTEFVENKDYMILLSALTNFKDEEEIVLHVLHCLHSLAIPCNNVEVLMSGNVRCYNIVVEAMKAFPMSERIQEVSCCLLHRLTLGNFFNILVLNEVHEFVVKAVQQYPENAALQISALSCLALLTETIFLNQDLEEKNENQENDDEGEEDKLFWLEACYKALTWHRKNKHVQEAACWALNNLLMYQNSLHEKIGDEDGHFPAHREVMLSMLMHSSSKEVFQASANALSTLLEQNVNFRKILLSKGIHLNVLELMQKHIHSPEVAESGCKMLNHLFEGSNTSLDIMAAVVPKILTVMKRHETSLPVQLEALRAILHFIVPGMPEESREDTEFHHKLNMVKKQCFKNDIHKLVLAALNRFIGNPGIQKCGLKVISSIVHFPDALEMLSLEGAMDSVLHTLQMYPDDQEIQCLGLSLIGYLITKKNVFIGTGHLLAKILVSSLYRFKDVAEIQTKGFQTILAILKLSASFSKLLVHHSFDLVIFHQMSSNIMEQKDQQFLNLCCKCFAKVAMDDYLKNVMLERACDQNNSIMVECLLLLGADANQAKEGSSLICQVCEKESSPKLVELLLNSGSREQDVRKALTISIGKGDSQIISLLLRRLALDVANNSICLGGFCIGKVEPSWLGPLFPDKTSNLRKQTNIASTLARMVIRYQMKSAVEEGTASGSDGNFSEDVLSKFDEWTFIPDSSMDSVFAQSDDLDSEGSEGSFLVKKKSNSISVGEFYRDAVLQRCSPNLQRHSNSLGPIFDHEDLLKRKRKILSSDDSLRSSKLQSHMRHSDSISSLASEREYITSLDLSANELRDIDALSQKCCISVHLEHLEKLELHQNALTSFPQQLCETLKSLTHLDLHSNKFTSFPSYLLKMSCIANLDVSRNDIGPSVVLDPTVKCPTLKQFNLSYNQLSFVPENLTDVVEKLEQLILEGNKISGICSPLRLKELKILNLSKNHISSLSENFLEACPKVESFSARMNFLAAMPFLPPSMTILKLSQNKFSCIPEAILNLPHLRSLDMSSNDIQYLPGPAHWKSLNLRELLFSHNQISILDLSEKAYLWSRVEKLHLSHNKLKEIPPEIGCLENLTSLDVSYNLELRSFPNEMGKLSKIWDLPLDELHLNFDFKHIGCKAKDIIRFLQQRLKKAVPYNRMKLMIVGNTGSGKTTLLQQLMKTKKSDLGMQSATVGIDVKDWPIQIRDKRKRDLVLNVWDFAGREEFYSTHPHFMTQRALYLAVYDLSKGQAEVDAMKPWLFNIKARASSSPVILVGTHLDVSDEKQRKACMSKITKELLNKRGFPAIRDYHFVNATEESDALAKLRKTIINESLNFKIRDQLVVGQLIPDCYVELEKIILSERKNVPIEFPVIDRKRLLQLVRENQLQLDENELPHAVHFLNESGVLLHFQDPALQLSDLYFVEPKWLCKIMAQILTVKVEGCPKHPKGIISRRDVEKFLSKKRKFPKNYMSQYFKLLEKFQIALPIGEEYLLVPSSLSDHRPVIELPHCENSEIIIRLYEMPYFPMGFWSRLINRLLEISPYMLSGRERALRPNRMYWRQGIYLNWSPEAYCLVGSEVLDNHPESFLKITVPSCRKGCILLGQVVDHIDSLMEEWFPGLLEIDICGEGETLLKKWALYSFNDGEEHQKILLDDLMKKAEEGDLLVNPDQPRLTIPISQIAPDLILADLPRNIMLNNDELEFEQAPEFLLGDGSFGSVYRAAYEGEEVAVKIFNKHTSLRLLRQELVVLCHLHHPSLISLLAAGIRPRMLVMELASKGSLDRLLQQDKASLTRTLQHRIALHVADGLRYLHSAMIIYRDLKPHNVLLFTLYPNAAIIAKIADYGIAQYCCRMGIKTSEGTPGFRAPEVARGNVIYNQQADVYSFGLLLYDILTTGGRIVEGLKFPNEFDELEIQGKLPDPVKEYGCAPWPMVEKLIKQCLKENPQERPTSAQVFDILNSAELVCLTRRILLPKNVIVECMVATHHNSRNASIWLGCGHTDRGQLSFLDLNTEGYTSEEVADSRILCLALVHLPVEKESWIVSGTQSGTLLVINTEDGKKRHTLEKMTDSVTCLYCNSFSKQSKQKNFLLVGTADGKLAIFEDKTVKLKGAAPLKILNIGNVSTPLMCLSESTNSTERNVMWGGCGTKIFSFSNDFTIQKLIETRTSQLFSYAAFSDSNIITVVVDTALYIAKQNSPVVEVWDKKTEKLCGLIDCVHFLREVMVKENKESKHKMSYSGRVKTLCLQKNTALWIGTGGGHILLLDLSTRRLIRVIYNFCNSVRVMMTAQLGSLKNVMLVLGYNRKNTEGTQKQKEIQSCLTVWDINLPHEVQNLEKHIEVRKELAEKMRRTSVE
Experimental: (§1) LRRK2 and LRRK2 G2019S Kinase Assay
(§2) The LRRK2 and LRRK2 G2019S kinase assays were performed using the AdaptaTM technology in ThermoFisher Scientific. This experiment was carried out according to the supplier’s protocol. Briefly, assay conditions were as follows. The mixture of substrate (LRRKtide) and each kinase was prepared in 50 mM Tris pH 8.5, 0.01% BRIJ-35, 10 mM MgCl2, 1 mM EGTA, 0.02% NaN3. Assays were performed in the presence of 70 µM ATP and 100 µM ATP (KmATP) in LRRK2 and LRRK2 G2019S, respectively. The reaction was progressed at room temperature for 1 hour. Upon completion of kinase reaction, 5 µL of Detection Mix was added and after 60 min incubation time, the emission ratio of 665/615 nm was calculated

LRRK2 G2019S = LRRK2 G2019S (Homo sapiens (Human), UniProt Q5S007, G2019S); experiment: LRRK2 G2019S kinase assay (Adapta); assay type: biochemical; settings: 100 µM ATP, LRRKtide substrate; read-out: LRRK2_G2019S IC50
Sequence of LRRK2 G2019S (Q5S007 whole entry G2019S): as the sequence (Q5S007 whole entry, species assumed) above, with G2019S counted along it
Experimental: as §1, §2

Sequence of GST-tagged recombinant human RIPK2 (O43353 whole entry): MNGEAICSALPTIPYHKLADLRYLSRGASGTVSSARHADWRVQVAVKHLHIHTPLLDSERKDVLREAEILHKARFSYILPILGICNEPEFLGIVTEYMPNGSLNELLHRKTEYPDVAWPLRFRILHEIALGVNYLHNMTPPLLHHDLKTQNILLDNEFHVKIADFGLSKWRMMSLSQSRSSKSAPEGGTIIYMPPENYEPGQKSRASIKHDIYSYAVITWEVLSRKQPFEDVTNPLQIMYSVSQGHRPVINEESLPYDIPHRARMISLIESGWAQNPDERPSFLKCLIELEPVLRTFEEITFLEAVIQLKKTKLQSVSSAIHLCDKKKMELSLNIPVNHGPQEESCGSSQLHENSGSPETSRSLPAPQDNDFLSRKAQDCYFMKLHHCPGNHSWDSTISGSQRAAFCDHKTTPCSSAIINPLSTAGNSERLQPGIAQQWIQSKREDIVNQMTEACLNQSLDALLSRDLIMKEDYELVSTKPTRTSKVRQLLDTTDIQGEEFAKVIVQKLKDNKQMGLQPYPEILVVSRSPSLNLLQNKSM

Row | IC50 [1] | IC50 [2] | IC50 [3] | IC50 [4] | IC50 (LRRK2 (WT)) | IC50 (LRRK2 G2019S) | Compound
1 | 0.0114 µM | 0.0024 µM | 0.0829 µM | – | – | – | Cc1c(-c2ccn3nc(NC(=O)C4CC4)cc3c2)cnc2[nH]ccc12 [Example 19, N-(5-(4-methyl-1H-pyrrolo[2,3-b]pyridin-5-yl)pyrazolo[1,5-a]pyridin-2-yl)cyclopropanecarboxamide]
2 | 0.0154 µM | – | 0.177 µM | 0.0043 µM | – | – | O=C(Nc1cc2cc(-c3cnc4[nH]cc(Cl)c4c3Cl)ccn2n1)[C@@H]1C[C@@H]1F [Example 29, (1S,2S)-N-(5-(3,4-dichloro-1H-pyrrolo[2,3-b]pyridin-5-yl)pyrazolo[1,5-a]pyridin-2-yl)-2-fluorocyclopropane-1-carboxamide]
3 | 0.0886 µM | – | 0.687 µM | 0.0025 µM | – | – | Cc1c[nH]c2ncc(-c3ccn4nc(NC(=O)[C@@H]5C[C@@H]5F)cc4c3)cc12 [Example 12, (1S,2S)-2-fluoro-N-(5-(3-methyl-1H-pyrrolo[2,3-b]pyridin-5-yl)pyrazolo[1,5-a]pyridin-2-yl)cyclopropane-1-carboxamide]
4 | 0.0159 µM | – | 0.0571 µM | 0.0042 µM | – | – | Cc1c(-c2ccn3nc(NC(=O)[C@@H]4C[C@H]4F)cc3c2)cnc2[nH]ccc12 [Example 22, (1S,2R)-2-fluoro-N-(5-(4-methyl-1H-pyrrolo[2,3-b]pyridin-5-yl)pyrazolo[1,5-a]pyridin-2-yl)cyclopropane-1-carboxamide]
5 | 0.00825 µM | – | 0.0614 µM | 0.0033 µM | – | – | Cc1c(-c2ccn3nc(NC(=O)[C@H]4C[C@@H]4F)cc3c2)cnc2[nH]ccc12 [Example 21, (1R,2S)-2-fluoro-N-(5-(4-methyl-1H-pyrrolo[2,3-b]pyridin-5-yl)pyrazolo[1,5-a]pyridin-2-yl)cyclopropane-1-carboxamide]

The remaining lines, values behind:

Row | Compound | IC50 [1] | IC50 [2] | IC50 [3] | IC50 [4] | IC50 (LRRK2 (WT)) | IC50 (LRRK2 G2019S)
6 | O=C(Nc1cc2cc(-c3cnc4[nH]cc(F)c4c3)ccn2n1)[C@@H]1C[C@@H]1F [Example 7, (1S,2S)-2-fluoro-N-(5-(3-fluoro-1 H-pyrrolo[2,3-b]pyridin-5-yl)pyrazolo[1,5-a]pyridin-2-yl)cyclopropane-1-carboxamide] | 0.0243 µM | – | 0.732 µM | 0.0036 µM | – | –
7 | Cc1nc2[nH]ccc2cc1-c1ccn2nc(NC(=O)[C@@H]3C[C@@H]3F)cc2c1 [Example 3, (1S,2S)-2-fluoro-N-(5-(6-methyl-1 H-pyrrolo[2,3-b]pyridin-5-yl)pyrazolo[1,5-a]pyridin-2-yl)cyclopropane-1-carboxamide] | 0.025 µM | – | 0.332 µM | 0.0007 µM | – | –
8 | O=C(Nc1cc2cc(-c3cnc4[nH]ccc4c3Cl)ccn2n1)[C@@H]1C[C@@H]1F [Example 2, (1S,2S)-N-(5-(4-chloro-1 H-pyrrolo[2,3-b]pyridin-5-yl)pyrazolo[1,5-a]pyridin-2-yl)-2-fluorocyclopropane-1-carboxamide] | 0.00667 µM | – | 0.0686 µM | 0.0076 µM | 0.0365 µM | 0.015 µM
9 | O=C(Nc1cc2cc(-c3cnc4[nH]ccc4c3)ccn2n1)[C@@H]1C[C@@H]1F [Example 1, (1S,2S)-N-(5-(1 H-pyrrolo[2,3-b]pyridin-5-yl)pyrazolo[1,5-a]pyridin-2-yl)-2-fluorocyclopropane-1-carboxamide] | 0.011 µM | – | 0.187 µM | 0.00071 µM | 0.0557 µM | 0.028 µM
